In patent US20040092571A1, “Pharmaceutical composition” (SANKYO COMPANY, LIMITED, priority 2000, published 2004):
Where a name gives a salt, the structure may show the parent alone.

What was measured:
[1] = test system: cholesterol-fed rabbits; assay: Effect on the development of atherosclerotic lesion in cholesterol-fed rabbits with chronic endothelial injury; assay type: in vivo, New Zealand White rabbits; details: for Effect on ECD (in words) / Effect on atheroclerotic area of the femoral lesion (in words): Table 2; for The ratio of Atheroclerotic area: femoral artery, oral for 8 weeks after surgery, control 57.4; for The ratio of Atheroclerotic area / ECD (extracellular lipid deposits): Pravastatin 10 mg/kg, Compound A 5 mg/kg; for ECD (extracellular lipid deposits): right femoral artery sections, Elastica-Masson's stain, oral for 8 weeks, control 15.5
Excerpt: Male New Zealand White rabbits (Kitayama Labes, Japan) weighing 1.0-1.5 kg were meal-fed a chow diet (RC-4, Oriental Bioservice, Japan) supplemented with 0.5% cholesterol, 3% peanut oil, and 3% coconut oil diet for a total of 10 weeks.
The dietary regimen consisted of feeding the cholesterol/fat diet at 40 g for the first 2 weeks, 50 g for 4 weeks, 60 g for final 4 weeks. After 2 week of diet initiation, a chronic endothelial injury was induced in the abdominal aorta and right femoral artery by surgically inserting a sterile, nylon monofilament through the medical saphenous artery of the right leg to the level of the diaphragm. The monofilament was secured and maintained in place for remaining 8 weeks of the study. Animals were randomized on the basis of their total cholesterol levels after 2 week of cholesterol/fat diet. The HMG-CoA reductase inhibitor and the ACAT inhibitor were orally administered both alone and in combination for 8 weeks after surgery.
Femoral artery was photographed for the morphometric analyses by digital camera (Coolpix 990, trade name: product of […].) connected with a computer. The severity of aortic atherosclerosis was estimated as a ratio of surface area of lesion to the intimal surface area of aorta by Photo-retouch software (“Adobe Photoshop 5.0” trade name: product of Adobe Systems Inc.) and the Scion image NIH Imaging Software (“Scion Image 1.61 c MacOs” product of Scion Corporation). (ii) Extracellular Lipid Deposits
Rabbits were anesthetized with intravenous injection of sodium pentobarbital (25 mg/kg) and perfused with saline by using a perfusion apparatus at a constant pressure of 100 mmHg. After perfusion, the aortas were excised, photographed. Analysis of lesional cross-sections on aortas was examined at the right femoral artery. Right femoral artery was fixed in Methanol Carnoy's fixative for at least 24 hours. The segments were embedded in paraffin, and sectioned at 5 μm. Five ribbons of four serilal sections from each segment were cut at 80 μm intervals. A section from each ribbon was treated with Elastica-Masson's stain.
Digital image of each section was collected using a digital camera (Fujix CCD camera system HC-2500: product of Fuji Photo Film Co., Ltd.) attached to Leica microscope at a magnification of 2.5×. The area of each lesional component was extracted using Adobe Photoshop 5.0 (Adobe) for estimation of the quality of the lesions. In sections treated with Elastica-Masson's stain, the region with light green were identified as extracellular matrix (ECM), and extracellular vacuoles and lacunae (white regions) were defined as extracellular lipid deposits (ECD). ECD was measured by average of value dividing area of lesional component by area of lesion using Adobe Photoshop 5.0 and Scion Image 1.61 MacOs.

[2] = test system: F1b hamsters; assay: Lipid lowering action in cholesterol/coconut oil-fed F1b hamsters (serum lipids by an enzyme method); assay type: in vivo, hamster; details: for Cholesterol concentration TC (total cholesterol) / Atherogenic index (VLDL+LDL cholesterol/HDL cholesterol) / Cholesterol concentration HDL / Cholesterol concentration VLDL + LDL: serum, oral once a day for 7 days, Pravastatin 3 mg/kg, Compound A 30 mg/kg; for Cholesterol concentration TC (total cholesterol): 17 h fast after final dose, control 253.0; for Atherogenic index (VLDL+LDL cholesterol/HDL cholesterol): control 3.0; for Cholesterol concentration HDL: control 63.6; for Cholesterol concentration VLDL + LDL: control 189.4
Protocol: Eleven-week-old male F1b hamsters were used in the experiment. The animals were fed in metal cages and allowed free access to food, which contained 0.05% cholesterol and 10% coconut oil, and water. The active agents were administered orally in the form of a suspension in 5% gum arabic solution once a day for 7 days. The animals were fasted for 17 hours after the final administration of active agents at which time blood samples were collected under anesthesia. Serum lipids were measured by an enzyme method. In the table, TC indicates total cholesterol, VLDL indicates very low density lipoprotein, LDL indicates low density lipoprotein, HDL indicates high density lipoprotein and compound A indicates N-(1-octyl-5-carboxymethyl-4,6-dimethylindolin-7-yl)-2,2-dimethylpropanamide sulfate.

Row | Structure (SMILES) | Effect on ECD (in words) [1] | Effect on atheroclerotic area of the femoral lesion (in words) [1] | The ratio of Atheroclerotic area [1] [%] | ECD (extracellular lipid deposits) [1] [mm^2] | Cholesterol concentration TC (total cholesterol) [2] | Atherogenic index (VLDL+LDL cholesterol/HDL cholesterol) [2] | Cholesterol concentration HDL [2] | Cholesterol concentration VLDL + LDL [2] | Effect on atherogenic index (in words) ([2]; summary of Table 1) | Effect on serum VLDL+LDL cholesterol level (in words) ([2]; summary of Table 1) | Effect on total serum cholesterol level (in words) ([2]; summary of Table 1)
1 | CCCCCCCCN1CCc2c(C)c(CC(=O)O)c(C)c(NC(=O)C(C)(C)C)c21 [Compound A, N-(1-octyl-5-carboxymethyl-4,6-dimethylindolin-7-yl)-2,2-dimethylpropanamide sulfate] | reduced | reduced | 45.8 | 10.7 | 170.9 | 1.8 | 62.0 | 109.0 | lowered | decreased | decreased
2 | CC[C@H](C)C(=O)O[C@H]1C[C@H](O)C=C2C=C[C@H](C)[C@H](CC[C@@H](O)C[C@@H](O)CC(=O)O)[C@H]21 [Pravastatin, (+)-(3R,5R)-3,5-dihydroxy-7-[(1S,2S,6S,8S,8aR)-6-hydroxy-2-methyl-8-[(S)-2-methylbutyryloxy]-1,2,6,7,8,8a-hexahydro-1-napthyl]heptanoic acid, reference compound] | no effect | no effect | 58.3 | 16.6 | 244.0 | 2.3 | 73.3 | 170.6 | – | – | –
